Experimental data published in patent US20070224154A1, “Methods of reducing skin irritation” (ACCESS BUSINESS GROUP INTERNATIONAL, LLC, priority 2006, published 2007).

Tested on: IL-1 alpha secretion by cocultures of fibroblasts and keratinocytes
Assay: IL-1 alpha assay: ELISA of IL-1α secreted by fibroblast/keratinocyte cocultures exposed to a surfactant irritant with botanical added
Assay type: cell-based, human
Settings: hand dishwashing detergent; for Percent IL-1 α Reduction AVG: average of 1%, 0.1%, 0.01%
From the text: IL-1 alpha is one cytokine often released near the beginning of the inflammation cascade, which ultimately leads to a human biological response resulting in visible and/or perceptual signs of irritation. Accordingly, by reducing the initial response to an irritant, such as a surfactant, the ultimate damaging reaction can be reduced, prevented, and/or eliminated.
The procedure for conducting IL-1 alpha assays is as follows: Cocultures of fibroblasts and keratinocytes, the primary cell types found in skin, are established using 100,000 fibroblasts and 200,000 keratinocytes per well. These types of cells are those found in the outer layers of the skin exposed to detergent during every day use. An irritant, for example the surfactant package used in a dish detergent (Example 1 below), is then applied to the coculture wells to initiate the production and secretion of pro-inflammatory cytokines by the cells. One such cytokine is human interleukin-1 alpha or IL-1α. In the body, this protein is a key mediator of the host response to infections and various inflammatory challenges. Once produced, IL-1α stimulates production of other pro-inflammatory cytokines and bioactive molecules. Together, these biological molecules send the message that something is wrong and the keratinocytes and fibroblasts need help. This is called the inflammatory response.
The amount of secreted IL-1α is directly related to the intensity of the inflammatory response. In vitro, the concentration of IL-1α secreted by the coculture cells in response to the irritant can be measured via a precise laboratory technique known as an Enzyme Linked Immuno-Sorbent Assay or ELISA. Thus, to test botanical materials for mildness, a lessening of IL-1α secretion, the mildness agents were added with the chemical irritant. When a reduction in IL-1α expression was observed, the mildness agents were successful. Theoretically, there are several mechanisms by which this could have been achieved at the cellular level. Without wishing to be bound to a particular theory or in any way limit the scope of the appended claims or their equivalents, it is presently believed that these mechanisms may include one or more of the following: the mildness agent could block the transcription of the DNA to RNA, translation of the RNA to protein, and/or release of the IL-1α from the cells. […] The mildness agent may also have stopped the cascade after the irritant works on the cell. Whatever the mechanism, the net result is the same. There is less IL-1α released by the cells which correlates to inhibition of events in the inflammatory cascade and ultimately, less inflammation.
These were prepared using a serial dilution technique: 1.0 g botanical was mixed well with 99.0 g dish detergent to give the 1.0% formulation; next, 10.0 g of the 1.0% solution was mixed well with 90.0 g of the dish detergent to give the 0.1% formulation; finally, 10.0 g of the 0.1% solution was mixed well with 90.0 g of the dish detergent to give the 0.01% formulation.

| Compound | Percent IL-1 α Reduction AVG | Percent IL-1 α Reduction (botanical 0.01% by weight) | Percent IL-1 α Reduction (botanical 0.1% by weight) | Percent IL-1 α Reduction (botanical 1% by weight) |
| --- | --- | --- | --- | --- |
| CC(C)=CCC[C@](C)(O)[C@@H]1CC=C(C)CC1 [Alpha bisabolol, (−)-α-bisabolol] | 6.67% | 19.00% | 2.00% | −1.00% |
| O=C(O[C@@H]1Cc2c(O)cc(O)cc2O[C@@H]1c1cc(O)c(O)c(O)c1)c1cc(O)c(O)c(O)c1 [EGCG, epigallocatechin gallate] | 10.50% | 12.50% | 12.10% | 6.90% |
| Oc1cc(O)c2c(c1)O[C@H](c1ccc(O)c(O)c1)[C@H](O)C2 [Epicatechin] | 29.97% | 26.2% | 22.1% | 41.6% |
| CC(C)=CCCC(C)=CCCC(C)=CCO [Farnesol] | 19.10% | 14.50% | 15.50% | 27.30% |
| CCCCCCCCCCCCCCCCCCOC(=O)[C@@]1(C)CC[C@]2(C)CC[C@]3(C)C(=CC(=O)[C@@H]4[C@@]5(C)CC[C@H](O)C(C)(C)[C@@H]5CC[C@]43C)[C@@H]2C1 [NET-STG, stearyl glycyrrhetinate] | 13.10% | 14.70% | 11.40% | 13.20% |
| O=P(O)(O)O[C@H]1[C@H](OP(=O)(O)O)[C@@H](OP(=O)(O)O)[C@H](OP(=O)(O)O)[C@@H](OP(=O)(O)O)[C@H]1OP(=O)(O)O [PHYTIC ACID EXTREME, phytic acid] | 14.16% | 15.01% | 12.56% | 14.91% |
| O=C(/C=C/c1ccc(O)c(O)c1)O[C@H](Cc1ccc(O)c(O)c1)C(=O)O [Rosmarinic Acid] | 28.80% | 34.5% | 31.8% | 20.1% |
| O=C1O[C@H]([C@@H](O)CO)C([O-])=C1OP(=O)([O-])[O-].O=C1O[C@H]([C@@H](O)CO)C([O-])=C1OP(=O)([O-])[O-].[Mg+2].[Mg+2].[Mg+2] [VC-PMG, Magnesium Ascorbyl Phosphate] | 21.93% | 29.70% | 23.80% | 12.30% |
| O=C1O[C@H]([C@@H](O)CO)C(O)=C1O [Vitamin C] | 7.33% | 10.30% | 8.50% | 3.20% |
| CC(=O)Oc1c(C)c(C)c2c(c1C)CCC(C)(CCC[C@H](C)CCC[C@H](C)CCCC(C)C)O2 (stereo partly shown) [Vitamin E acetate] | 26.73% | 25.80% | 27.50% | 26.90% |
| Catechin | 17.43% | 19.50% | 24.90% | 7.90% |
| Ceramide | 7.73% | −0.60% | 14.70% | 9.10% |
| Dimethiconol Panthenol [D.S.H. C N] | 19.31% | 22.25% | 16.43% | 19.24% |
| Dimethylsilanol Hyaluronate [AMINO DL-30] | 12.07% | 21.81% | 7.18% | 7.22% |
| Vitamin B12 | 9.17% | 17.70% | −3.20% | 13.00% |
| glutaurylamidoethyl indole [GLISTIN] | 22.63% | 18.50% | 31.80% | 17.60% |
